Test results published in paper PMC6700801, “Caffeic acid phenethyl ester suppresses androgen receptor signaling and stability via inhibition of phosphorylation on Ser81 and Ser213” (Cell Communication and Signaling : CCS, 2019).

Biological target: T1, Androgen receptor (AR) (Rattus norvegicus, UniProt P15207)
T1 sequence (P15207 646-902 limits assumed): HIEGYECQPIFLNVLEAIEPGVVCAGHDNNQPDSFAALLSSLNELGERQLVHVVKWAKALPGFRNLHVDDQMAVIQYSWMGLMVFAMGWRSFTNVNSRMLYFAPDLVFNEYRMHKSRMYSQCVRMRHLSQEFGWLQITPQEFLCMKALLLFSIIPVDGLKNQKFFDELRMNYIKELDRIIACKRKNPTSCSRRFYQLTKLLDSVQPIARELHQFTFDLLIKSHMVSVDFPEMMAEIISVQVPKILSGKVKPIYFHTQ
Test: fluorescence polarization competition assay (PolarScreen AR Competitor Assay kit); very weak
Assay type: binding

For `O=C(/C=C/c1ccc(O)c(O)c1)OCCc1ccccc1` [Caffeic acid phenethyl ester], the IC50 was 132 µM.
